Measured values taken from paper PMC11350787, “Antimicrobial Properties and Cytotoxicity of LL-37-Derived Synthetic Peptides to Treat Orthopedic Infections” (Antibiotics, 2024).
Counter-ions that a name gives are not always drawn. Peptide text beside a SMILES is read from it.

Columns and labels:
ATCC strains = test system: ATCC strains
Excerpt: (§1) A total of 18 bacterial strains relevant to orthopedic infections were used for microbiological tests, including 8 ATCC (American Type Culture Collection, ATCC, Manassas, VA, USA) and 10 clinical isolates (CI) from the Laboratory of Clinical Chemistry and Microbiology, IRCCS Ospedale Galeazzi–Sant’Ambrogio of Milan (Italy) strain collection. The ATCC strains were used for the first screening (MIC/MBC) of all the AMPs produced, while the clinical isolates were used for further MIC/MBC assays on selected AMPs. Among CI, S. epidermidis GOI1153754-03-14 has been already characterized and used in previous studies. All the strains were stocked at −80°C and working stocks were stored at −20 °C. At the occurrence, the bacteria were resuscitated in Brain Hearth Infusion (BHI, Millipore, Milan, Italy) broth at 37 °C for 18 h from the working stocks.
(§2) To determine the minimum inhibitory concentration (MIC) and the minimum bactericidal concentration (MBC), ISO20776-1 and Clinical and Laboratory Standards Institute guidelines were followed. A commercial synthetic LL-37 (Aurogene, Rome, Italy) was used as the control in the MIC and MBC assays. A stock solution of each AMP was prepared at 600 µg/mL to achieve a final concentration of 300 µg/mL. […] The MIC was determined according to the aforementioned standard guidelines. The MBC was determined by plating 2 µL of culture from each well of the MIC plates on a Tryptic Soy Agar (TSA, Millipore, Milan, Italy) plate and incubated for 24 h at 37 °C. The concentration at which there was no growth was recorded as MBC. Each experiment was carried out in triplicate. Representative MIC and MBC values for vancomycin and gentamicin were assessed to offer a benchmark comparison for the AMPs. Quality control was conducted with Staphylococcus aureus ATCC 29,213 and vancomycin according to EUCAST guidelines.

S. aureus ATCC 25923 = assay: microbe, parasite or virus in culture
Excerpt: as §1, §2

S. aureus ATCC 49230 = assay: microbe, parasite or virus in culture
Excerpt: as §1, §2

[1] = test system: S. epidermidis ATCC 35984; assay: microbe, parasite or virus in culture
Excerpt: as §1, §2

P. aeruginosa ATCC 27853 = assay: microbe, parasite or virus in culture
Excerpt: as §1, §2

E. coli ATCC 25922 = assay: microbe, parasite or virus in culture
Excerpt: as §1, §2

S. aureus ATCC 43300 = assay: microbe, parasite or virus in culture
Excerpt: as §1, §2

[2] = test system: S. epidermidis ATCC 14990; assay: microbe, parasite or virus in culture
Excerpt: as §1, §2

With `O=C(O)C(F)(F)F` [Na-TFA, Trifluoroacetic acid, reference compound] the “Bacteriostatic or bactericidal effect” value (ATCC strains; all ATCC strains, at the concentrations tested (up to 200 µg/mL)) was “no bacteriostatic or bactericidal effect”, the MBC (S. aureus ATCC 25923; Staphylococcus aureus, ATCC25923, 24 h, read-out: Minimum Bactericidal Concentration (MBC)) was over 200 µg/mL and the MIC (S. aureus ATCC 25923; Staphylococcus aureus, ATCC25923, read-out: Minimum Inhibitory Concentration (MIC)) was over 200 µg/mL. For the same molecule, the MBC (S. aureus ATCC 49230; Staphylococcus aureus, ATCC49230, 24 h, read-out: Minimum Bactericidal Concentration (MBC)) was over 200 µg/mL, the MIC (S. aureus ATCC 49230; Staphylococcus aureus, ATCC49230, read-out: Minimum Inhibitory Concentration (MIC)) was over 200 µg/mL and the MBC ([1]; Staphylococcus epidermidis, ATCC35984, 24 h, read-out: Minimum Bactericidal Concentration (MBC)) was over 200 µg/mL. The MIC ([1]; Staphylococcus epidermidis, ATCC35984, read-out: Minimum Inhibitory Concentration (MIC)) was over 200 µg/mL, the MBC (P. aeruginosa ATCC 27853; Pseudomonas aeruginosa, ATCC27853, 24 h, read-out: Minimum Bactericidal Concentration (MBC)) was over 200 µg/mL and the MIC (P. aeruginosa ATCC 27853; Pseudomonas aeruginosa, ATCC27853, read-out: Minimum Inhibitory Concentration (MIC)) was over 200 µg/mL. The MBC (E. coli ATCC 25922; Escherichia coli, ATCC25922, 24 h, read-out: Minimum Bactericidal Concentration (MBC)) was over 200 µg/mL, the MIC (E. coli ATCC 25922; Escherichia coli, ATCC25922, read-out: Minimum Inhibitory Concentration (MIC)) was over 200 µg/mL and the MBC (S. aureus ATCC 43300; Staphylococcus aureus, ATCC43300, 24 h, read-out: Minimum Bactericidal Concentration (MBC)) was over 200 µg/mL. It also gave an MIC (S. aureus ATCC 43300; Staphylococcus aureus, ATCC43300, read-out: Minimum Inhibitory Concentration (MIC)) of over 200 µg/mL, an MBC ([2]; Staphylococcus epidermidis, ATCC14990, 24 h, read-out: Minimum Bactericidal Concentration (MBC)) of over 200 µg/mL and an MIC ([2]; Staphylococcus epidermidis, ATCC14990, read-out: Minimum Inhibitory Concentration (MIC)) of over 200 µg/mL.

`CC[C@H](C)[C@H](NC(=O)[C@H](CCCNC(=N)N)NC(=O)[C@H](CCC(N)=O)NC(=O)[C@@H](NC(=O)[C@@H](NC(=O)[C@H](CCCNC(=N)N)NC(=O)[C@H](CCCCN)NC(=O)[C@@H](N)Cc1ccccc1)[C@@H](C)CC)C(C)C)C(=O)N[C@@H](CCCCN)C(=O)N[C@@H](CC(=O)O)C(=O)N[C@@H](Cc1ccccc1)C(=O)N[C@@H](CC(C)C)C(=O)N[C@@H](CCCNC(=N)N)C(N)=O` [FK-13] (H-FKRIVQRIKDFLR-NH2) was tested, and the “MBC values over all ATCC strains tested” value (ATCC strains; 18 h) was “greater than 300 µg/mL”, the “Minimum Inhibitory Concentration (MIC)” value (S. aureus ATCC 25923; ATCC 25923, 18 h) was 300.00 µg/mL and the “Minimum Bactericidal Concentration (MBC)” value (S. aureus ATCC 25923; ATCC 25923, 24 h) was over 300.00 µg/mL. For the same molecule, the “Minimum Inhibitory Concentration (MIC)” value (S. aureus ATCC 49230; ATCC 49230, 18 h) was over 300.00 µg/mL, the “Minimum Bactericidal Concentration (MBC)” value (S. aureus ATCC 49230; ATCC 49230, 24 h) was over 300.00 µg/mL and the “Minimum Inhibitory Concentration (MIC)” value ([1]; ATCC 35984, 18 h) was 150.00 µg/mL. For the same molecule, the “Minimum Bactericidal Concentration (MBC)” value ([1]; ATCC 35984, 24 h) was 150.00 µg/mL, the “Minimum Inhibitory Concentration (MIC)” value (P. aeruginosa ATCC 27853; ATCC 27853, 18 h) was 300.00 µg/mL and the “Minimum Bactericidal Concentration (MBC)” value (P. aeruginosa ATCC 27853; ATCC 27853, 24 h) was 300.00 µg/mL. For the same molecule, the “Minimum Inhibitory Concentration (MIC)” value (E. coli ATCC 25922; ATCC 25922, 18 h) was 75.00 µg/mL, the “Minimum Bactericidal Concentration (MBC)” value (E. coli ATCC 25922; ATCC 25922, 24 h) was 150.00 µg/mL and the “Minimum Inhibitory Concentration (MIC)” value (S. aureus ATCC 43300; ATCC 43300, 18 h) was 300.00 µg/mL. The “Minimum Bactericidal Concentration (MBC)” value (S. aureus ATCC 43300; ATCC 43300, 24 h) was over 300.00 µg/mL, the “Minimum Inhibitory Concentration (MIC)” value ([2]; ATCC 14990, 18 h) was 150.00 µg/mL and the “Minimum Bactericidal Concentration (MBC)” value ([2]; ATCC 14990, 24 h) was 150.00 µg/mL.
